Assay results published in article PMC6271513, “Design and Synthesis of Chalcone Derivatives as Inhibitors of the Ferredoxin — Ferredoxin-NADP^+ Reductase Interaction of Plasmodium falciparum: Pursuing New Antimalarial Agents” (Molecules, 2014).

biological target: T1, PfFd-PfFNR (Plasmodium falciparum, UniProt C6KT68+Q8IED5); assay: cytochrome c reduction at […] nm, FNR-Fd electron transfer; format: biochemical
T1 construct: gene FNR; recombinant PfFNR (E. coli TG1 pTrc99A) and PfFd (E. coli JM105 pTrc99A), purified; PfFd 2Fe-2S, PfFNR flavoprotein
T1 sequence (C6KT68 56-371): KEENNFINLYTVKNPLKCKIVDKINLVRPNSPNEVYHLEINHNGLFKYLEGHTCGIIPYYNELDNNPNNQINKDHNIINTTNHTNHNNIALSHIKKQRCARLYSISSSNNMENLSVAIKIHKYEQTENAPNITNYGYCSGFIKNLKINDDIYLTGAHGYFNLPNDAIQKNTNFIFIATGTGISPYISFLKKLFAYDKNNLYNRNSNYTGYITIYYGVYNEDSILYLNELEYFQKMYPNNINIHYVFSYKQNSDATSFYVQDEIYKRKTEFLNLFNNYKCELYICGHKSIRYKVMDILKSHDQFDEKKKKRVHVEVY
T1 sequence (Q8IED5 97-194 limits assumed): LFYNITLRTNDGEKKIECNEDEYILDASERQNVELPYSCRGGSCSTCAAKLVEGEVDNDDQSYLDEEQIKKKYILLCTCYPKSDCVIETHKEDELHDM

SMILES | inhibition at 100 µM
COc1cccc(/C=C/C(=O)c2ccccc2)c1 [compound 9, (E)-3-(3-Methoxyphenyl)-1-phenylprop-2-en-1-one] | 0%
COc1cccc(/C=C/C(=O)c2ccc(N)cc2)c1OC [compound 4, (E)-1-(4-Aminophenyl)-3-(2,3-dimethoxyphenyl)prop-2-en-1-one] | 31.6%
COc1ccc(OC)c(/C=C/C(=O)c2ccc(Br)cc2)c1 [compound 16, (E)-1-(4-Bromophenyl)-3-(2,5-dimethoxyphenyl)prop-2-en-1-one] | 11.8%
Nc1ccc(C(=O)/C=C/c2ccccc2)cc1 [compound 7, (E)-1-(4-Aminophenyl)-3-phenylprop-2-en-1-one] | 10.9%
COc1cccc(/C=C/C(=O)c2ccccc2)c1OC [compound 11, (E)-3-(2,3-Dimethoxyphenyl)-1-phenylprop-2-en-1-one] | -5.88%
COc1ccc(/C=C/C(=O)c2ccc(Br)cc2)c(OC)c1 [compound 15, (E)-1-(4-Bromophenyl)-3-(2,4-dimethoxyphenyl)prop-2-en-1-one] | 26.5%
COc1ccc(OC)c(/C=C/C(=O)c2ccccc2)c1 [compound 13, (E)-3-(2,5-Dimethoxyphenyl)-1-phenylprop-2-en-1-one] | 5.88%
COc1ccccc1/C=C/C(=O)c1ccc(N)cc1 [compound 1, (E)-1-(4-Aminophenyl)-3-(2-methoxyphenyl)prop-2-en-1-one] | 15.8%
COc1ccccc1/C=C/C(=O)c1ccccc1 [compound 8, (E)-3-(2-Methoxyphenyl)-1-phenylprop-2-en-1-one] | -10.3%
COc1ccc(/C=C/C(=O)c2ccc(N)cc2)c(OC)c1 [compound 5, (E)-1-(4-Aminophenyl)-3-(2,4-dimethoxyphenyl)prop-2-en-1-one] | 38.2%
COc1ccc(OC)c(/C=C/C(=O)c2ccc(N)cc2)c1 [compound 6, (E)-1-(4-Aminophenyl)-3-(2,5-dimethoxyphenyl)prop-2-en-1-one] | -14.1%
COc1ccc(/C=C/C(=O)c2ccccc2)cc1 [compound 10, (E)-3-(4-Methoxyphenyl)-1-phenylprop-2-en-1-one] | 4.69%
O=C(/C=C/c1ccccc1)c1ccccc1 [compound 17, (E)-1,3-diphenyl-2-propen-1-one] | 22.1%
COc1ccc(/C=C/C(=O)c2ccc(Br)cc2)cc1 [compound 14, (E)-1-(4-Bromophenyl)-3-(4-methoxyphenyl)prop-2-en-1-one] | 7.35%
COc1ccc(/C=C/C(=O)c2ccccc2)c(OC)c1 [compound 12, (E)-3-(2,4-Dimethoxyphenyl)-1-phenylprop-2-en-1-one] | 6.25%
COc1cccc(/C=C/C(=O)c2ccc(N)cc2)c1 [compound 2, (E)-1-(4-Aminophenyl)-3-(3-methoxyphenyl)prop-2-en-1-one] | 22.4%
